The values that follow come from patent US7402574B2, “Antisense composition and method for treating cancer” (AVI BioPharma, Inc., priority 2004, dated 2008).

In one data set the test system is HCT-116. Kind of data set: HCT-116 cells treated with sulindac sulfide, apoptosis and proliferation. Type of data set: cell-based, human. Conditions: 100 μM, 3 days.
Data set [1] deals with E-Cadherin. Kind of data set: HCT-116 cells treated with sulindac sulfide, E-Cadherin by RT-PCR. Conditions: 100 μM, 3 days. Type of data set: cell-based, human. The procedure:
(§1) For chemopreventive studies, we treated the human CRC cell line HCT-116 with sulindac sulfide (100 μM) or vehicle for 3 days and analyzed SNAIL and E-Cadherin by RT-PCR. In order to evaluate frequency of SNAIL overexpression in human colon cancer, we immunohistochemically probed a tissue array using a poly clonal antibody. Finally, to determine whether SNAIL is implicated in E-cadherin donwregulation in CRC, we treated 10 week old male MIN mice with antisense PMO to SNAIL (250 μg/day for 5 weeks) and examined E-cadherin levels in the uninvolved intestine using Western blot analysis.

Data set [2] deals with SNAIL. The data set can be described thus: HCT-116 cells treated with sulindac sulfide, SNAIL by RT-PCR. It counts as cell-based, human. Conditions: 100 μM, 3 days, p=0.007. The protocol: as §1
The next data set deals with APC^MIN mouse. The data set can be described thus: MIN mice, anti-SNAIL PMO daily i.p. 5 weeks, intestinal tumors scored. It counts as in vivo. Particulars: 200 μg/20 g mouse. The procedure:
(§2) Sixteen MIN mice (9-10 week old) were randomized to daily i.p. injections for 5 weeks with either saline or anti-SNAIL phosphorodiamidate morpholino antisense oligomers (PMO; 200 μg/20 g mouse). Animals were given BrdU 2 h prior to sacrifice and intestinal tumors were scored under magnification by observers blinded to treatment group. Immunohistochemical analysis was performed on formalin fixed intestinal segments for proliferation (BrdU labeling), apoptosis (using activated caspase 3) and SNAIL downregulation. The samples were scored by a gastrointestinal pathologist.

The next data set has as its system MIN mice. Kind of data set: Hair loss (alopecia) in PMO treated MIN mice. Type of data set: in vivo, mouse. Particulars: antisense treated MIN mice, Example 3.
Source text: As described above, SNAIL binds the E-box motifs of E-cadherin, and therefore inhibits E-cadherin expression. E cadherin is required for proper hair follicle cycling (Young, Boussadia et al. 2003). E-cadherin binds with β-catenin altering its location within the cell as well as reducing its availability. Decreasing the level of SNAIL leads to increased E-cadherin which then limits the availability of β-catenin. The decrease in β-catenin leads to an increase in genes in the NF-kappa beta pathway, including Fas and TRAF1. […] Antisense SNAIL PMO administered systemically (e.g. intravenous injection as in Example 3) could cause alopecia through Fas-mediated apoptosis of hair follicle cells or because E cadherin levels have increased sufficiently to cause abnormal hair follicle cycling.
as §2

Data set [3] deals with SNAIL. Kind of data set: MIN mice, immunohistochemical analysis of intestinal segments for SNAIL downregulation. Type of data set: in vivo. Particulars: daily i.p. 5 weeks, 200 μg/20 g mouse. The procedure:
as §2

The next data set relates to Apc^Min/+ (MIN) mouse. Kind of data set: MIN mouse, antisense SNAIL PMO IP for four weeks, adenomatous polyp / tumor formation. It counts as in vivo. Conditions: MIN mice, 4 weeks treatment, IP 250 μg per day, five days per week. An excerpt: The Apc^Min/+ (MIN) mouse is a model for colorectal cancer and was used by the inventors to study the effects of antisense SNAIL PMO on the incidence and development of intestinal precancerous lesions (see e.g. Examples 2&3). The MIN mouse has a germ-line mutation in the adenomatous polyposis coli (Apc) gene which leads to familial adenomatous polyposis (FAP). Inactivation of Apc is found in 80% of sporadic human colorectal cancers and in humans with FAP (Kinzler and Vogelstein 1996). The MIN mouse model mimics the rapid development of adenomatous polyps that affect humans with germ-line inactivation of one Apc gene and therefore is a respected model for human colon carcinogenesis.
This observation clearly supports the role of SNAIL in the progression of colon carcinogenesis and as a potent target for anti-carcinogenic therapies.
Ten week-old MIN mice were injected intraperitonealy (IP) with SNAIL PMO (SEQ ID NO: 11) at a dose of 250 μg per day, five days per week for four weeks. Control mice were not injected with any antisense compound and were allowed to develop colon cancers.

In data set [4] the test system is mucosal proliferation (BrdU labeling). The data set can be described thus: MIN mice, immunohistochemical analysis of intestinal segments for proliferation (BrdU labeling). Type of data set: in vivo. Conditions: daily i.p. 5 weeks, 200 μg/20 g mouse, BrdU 2 h prior to sacrifice, control 8.92 ± 8.00, p < 0.05. The protocol: as §2
(Uptake of a labelled nucleoside into DNA is a usual measure of proliferation.)

Data set [5] has as its system E-cadherin. Kind of data set: MIN mice treated with antisense PMO to SNAIL, E-cadherin in uninvolved intestine by Western blot. It counts as in vivo, mouse. Particulars: 10 week old male MIN mice, 250 μg/day for 5 weeks, p=0.027. The procedure:
as §1

A further data set has as its system activated caspase 3. The data set can be described thus: MIN mice, immunohistochemical analysis of intestinal segments for apoptosis (activated caspase 3). Conditions: daily i.p. 5 weeks, 200 μg/20 g mouse, immunohistochemistry, control 1.00 ± 0.74, p < 0.05. Type of data set: in vivo. The procedure:
as §2

For `CSc1ccc(/C=C2/C(C)=C(CC(=O)O)c3cc(F)ccc32)cc1` [sulindac sulfide], in the data set with HCT-116, the apoptosis entry is recorded as “induced apoptosis” and the proliferation entry was “inhibited proliferation”. Moreover, the E-cadherin expression result in the data set on E-Cadherin [1] is on record as “induction”. In addition, the “SNAIL expression (% of vehicle)” value in the data set on SNAIL [2] was 39.2 % of vehicle.

Consider “SNAIL PMO: phosphorodiamidate morpholino antisense oligomer GGAGCGCGGCATGTTGGCC, target ncts. 8-26 of GenBank M95604 (all phosphorodiamidate morpholino (PMO))”, for which the “Tumor incidence (%)” value in the data set on APC^MIN mouse (control 25.06 ± 4.10, p < 0.05) turned out to be 19.57 ± 6.16%. In addition, the “anti-tumorigenic effect (decrease)” value in the data set on APC^MIN mouse (versus saline control) came to 22%. The “hair loss (alopecia)” value in the data set with MIN mice is recorded as “pronounced hair loss (alopecia)”. In addition, the “hair loss (alopecia)” value in the data set on MIN mice (listed as Antisense SNAIL PMO) is given as “induce alopecia”. In the data set with SNAIL [3] (immunohistochemistry, control 2.58 ± 0.67, p < 0.05), the “SNAIL (Arbit. Units)” value is 2.00 ± 0.58 Arbit. Units. Further, the “suppression of SNAIL protein expression” value in the data set on SNAIL [3] (versus saline control) amounted to 23%. Moreover, in the data set with Apc^Min/+ (MIN) mouse, the “reduction in formation of adenomatous polyps, colon” value is on record as 44.1%; the “reduction in formation of adenomatous polyps, proximal bowel” value turned out to be 41.6%; the “total number of tumors reduced” value is reported as 21.9%. In addition, the “BrdU Positive (% Total)” value in [4] is 3.43 ± 3.80 % Total. Moreover, the “increase in intestinal E-cadherin protein” value in the data set with E-cadherin [5] is on record as 26%. Also, the “Cleaved Caspase-3 (Arbit. Units)” value in the data set with activated caspase 3 is 1.50 ± 0.65 Arbit. Units.
